Experimental data taken from patent publication US9029414B2, “Triterpenoid compounds and methods of use thereof” (Biotechnology Research Corporation, priority 2008, dated 2015).

Key:
hippocampal neurons = experiment: Hippocampal neuron survival assay against glutamate excitotoxicity (LDH); type: cell-based, Sprague-Dawley rats; conditions: 30 μM 24 hrs, glutamate 10-200 μM 20 min
Description: Hippocampal neurons/cortical neurons were prepared from embryonic day 18 Sprague-Dawley rats. After the cortices had been removed from the brain, isolated cells were plated onto Poly d-Lysine (PDL) (P0899, Sigma)-coated 48 well plates (150687, NUNC) at a density of 2×10^5 cell per well using Neurobasal Medium (NB) (21103-049, Gibco) with B27 supplement (17504-044, Gibco), penicillin/streptomycin (15140, Gibco) and 1 mM L-glutamine (25030, Gibco). The cell culture was incubated at 37° C. in a humidified atmosphere of 5% CO2 in air. Medium was changed to growth medium (Neurobasal Medium with penicillin/streptomycin and B27 supplement) after 3 hours. Half medium was changed with growth medium every 2-3 days to maintain the cells until day 10 in vitro (DIV 10). Serial dilutions of samples were prepared in growth medium and DMSO was used as vehicle control. For pre-treating assay, half of the medium was removed from wells, and equal amount of diluted samples were replaced. Cells were then incubated for 2 hours at 37° C. in a humidified atmosphere of 5% CO2 in air. […] Afterwards, cells were incubated in growth medium for 18-24 hours and detected with Cytotoxicity Detection Kit (1644793, Roche).
Hippocampal neurons were treated with DA021 and subsequently subjected to varying concentrations of glutamate. […] LDH release into the medium was then measured.

[1] = tested on: scopolamine-induced memory impaired mice; experiment: Morris water maze, scopolamine-induced memory impairment; type: in vivo; conditions: 10 mg/kg orally, scopolamine 4 mg/kg i.p.; day 4 and day 5
Description: 6-8 week old outbred male I.C.R. mice, weighing 25-35 g were housed two per cage in a climatically controlled animal room (23-25° C.) under 12 hours light/dark cycling. The animals were allowed access to water and food ad lib. The mice used for the experiment were brought to particular laboratory conditions for two days. All the experiments were conducted between 14:00 and 18:00. […] The experimental mice were randomly assigned into 4 or 6 groups, each consisting of 12 mice with similar mean body weights and age. The test compound was dissolved in physiological saline before the experiments each day. […]
Each mouse was subjected to 4 trials per day for 5 consecutive days. […] The probe trial (without platform) was assessed within a 60 s period on the fifth day of behavioral testing (one experiment), and the time spent in the southeast quadrant where the escape platform had been set during training was recorded computationally and presented as percentage of spatial bias.
The two-way ANOVA with repeated measures was used to analyze latency values, and calculated as the mean latency periods for each mouse. (Data are expressed as means±S.E.M. by using 2-way ANOVA). One-way ANOVA followed by Duncan's multiple-range test (data expressed as mean±S.E.M. *P<0.05 and **P<0.01 versus scopolamine) was used to analyze group differences of the data collected during probe trials. […]

[2] = biological target: serotonin (5-HT1D subtype) receptor (Homo sapiens, UniProt P28221); experiment: Radioligand competition binding assay, 5-HT1D; conditions: 10 μM in duplicate, read-out: % inhibition of control specific binding
Description: DA001 was evaluated against 109 receptor binding assays and 17 enzyme assays, comprising of selective, central and peripheral therapeutically-relevant targets. Radioligand competition assays were conducted whereby DA001 was tested at one concentration (10 μM) in duplicate. […] It could compete with the radioligand [^125I-NDP-alpha-melanocyte-stimulating hormone (α-MSH)] binding for MC1 and MC4 but not MC3 and MC5 nor the related family, the melanin concentrating hormone receptors (MCH1 and MCH2).

Chain of serotonin (5-HT1D subtype) receptor (P28221 whole entry): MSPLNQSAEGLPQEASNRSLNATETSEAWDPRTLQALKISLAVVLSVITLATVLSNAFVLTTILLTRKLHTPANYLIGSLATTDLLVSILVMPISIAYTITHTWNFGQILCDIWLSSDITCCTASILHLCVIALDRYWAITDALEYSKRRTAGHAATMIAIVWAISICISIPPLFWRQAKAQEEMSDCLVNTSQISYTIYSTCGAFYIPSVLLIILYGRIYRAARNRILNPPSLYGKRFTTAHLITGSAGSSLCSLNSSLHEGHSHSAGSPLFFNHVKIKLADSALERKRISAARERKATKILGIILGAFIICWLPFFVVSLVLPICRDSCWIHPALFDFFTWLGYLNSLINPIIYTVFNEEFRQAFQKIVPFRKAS

C=C(C)[C@@H]1CC[C@]2(/C=N/O)CC[C@]3(C)C(CCC4[C@@]5(C)CCC(=O)[C@@](C)(CO)[C@@H]5CC[C@]43C)C12 (stereo partly drawn) [DA021] was tested, and the “protection from glutamate-induced excitotoxicity (LDH release)” value (hippocampal neurons) was “protects neurons against differing concentrations of glutamate” and the escape latency [1] was “significantly reversed the increased escape latency”.
For C=C(C)[C@@H]1CC[C@]2(C(=O)O)CC[C@]3(C)C(CC[C@@H]4[C@@]5(C)CC[C@H](O[C@@H]6OC[C@H](O)[C@H](O)[C@H]6O[C@@H]6O[C@@H](C)[C@H](O)[C@@H](O)[C@H]6O)[C@@](C)(CO)[C@@H]5CC[C@]43C)[C@@H]12 (stereo partly drawn) [DA001, 3-O-[α-L-rhamnopyranosyl-(1→2)-α-L-arabinopyranosyl]-3,23-dihydroxy-20(29)-lupen-28-oic acid], the inhibition at 10 µM [2] was 30%.
